Measured values: ChEMBL document CHEMBL1125816, “[123I]-2 beta-carbomethoxy-3 beta-(4-iodophenyl)tropane: high-affinity SPECT radiotracer of monoamine reuptake sites in brain” (J Med Chem, 1991)

Molecular target: Sodium-dependent serotonin transporter (Rattus norvegicus, UniProt P31652)
Assay: Compound was tested for binding affinity to Serotonin transporter sites in homogenates prepared from rat cortical membranes using [3H]paroxetine as radioligand

Chain of Sodium-dependent serotonin transporter (P31652 whole entry): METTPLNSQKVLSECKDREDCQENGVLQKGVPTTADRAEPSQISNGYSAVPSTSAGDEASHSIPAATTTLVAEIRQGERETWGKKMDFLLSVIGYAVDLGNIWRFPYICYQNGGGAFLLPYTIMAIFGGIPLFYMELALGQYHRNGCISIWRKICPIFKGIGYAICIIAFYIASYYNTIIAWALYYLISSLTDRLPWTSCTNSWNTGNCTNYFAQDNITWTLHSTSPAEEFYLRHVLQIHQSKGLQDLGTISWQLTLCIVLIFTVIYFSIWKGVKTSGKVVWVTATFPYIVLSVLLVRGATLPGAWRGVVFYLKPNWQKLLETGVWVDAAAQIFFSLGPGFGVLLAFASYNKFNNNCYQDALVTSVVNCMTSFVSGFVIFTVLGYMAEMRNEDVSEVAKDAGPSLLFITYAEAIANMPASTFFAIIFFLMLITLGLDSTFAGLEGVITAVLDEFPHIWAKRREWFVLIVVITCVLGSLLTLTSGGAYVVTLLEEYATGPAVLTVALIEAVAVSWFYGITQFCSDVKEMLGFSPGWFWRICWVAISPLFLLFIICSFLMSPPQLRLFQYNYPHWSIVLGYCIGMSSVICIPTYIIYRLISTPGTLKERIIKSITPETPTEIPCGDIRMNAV

Compound | IC50
COC(=O)[C@H]1[C@@H](c2ccc(F)cc2)C[C@H]2CC[C@H]1N2C | 479 nM
COC(=O)[C@@H]1C2CC[C@H](C[C@@H]1c1ccc(I)cc1)N2C | 3.78 nM
